For 24 compounds, solubility and IC50 results are on record in US5196428A, “Imidazo[4,5-b]qinolinyl oxy alkyl ureas” (Bristol-Myers Squibb Company, priority 1992, dated 1993).

The structures appear in SMILES notation. ≈ marks a conversion by molar mass, not a printed value. Counter-ions that a name gives are not always drawn. Like-named read-outs stand apart in the source and are kept apart here.

One data set can be described thus: Aqueous solubility. To be noted: water. The format is physicochemical.
The test system of data set [1] is human blood platelets in platelet-rich-plasma (ADP-induced aggregation). Kind of data set: In vitro inhibition of ADP-induced human platelet aggregation (aggregometer method of Born). The format is cell-based. As to the method:
The aggregometer method of Born, G. V. R., J. Physiol., (London), 162, 67-68, (1962) as modified by Mustard, J. F., et al., J. Lab. Clin. Med., 64, 548-599, (1964) was used to assess the in vitro activity of the various compounds as to the inhibition of adenosine diphosphate (ADP) and collagen-induced platelet aggregation. The human volunteer donor's arm is cleansed with 70% ethyl alcohol. A sterile 20 ml syringe and needle are used to withdraw 20 ml of blood. The blood is immediately added to a test tube containing 3.8% sodium citrate to prevent clotting (1 part citrate to 9 parts blood).
Platelet rich plasma (PRP) was separated by centrifugation for 10 minutes at 1000 rpm (140 g) from citrated (3.8%) human blood. All glassware used for preparation of PRP is silicon treated. ADP in final concentration of 0.5 mcg/mL or 0.05 mL of a collagen suspension prepared according to the method described by Evans, G., et al., J. Exp. Med., 128, 877-894, (1968) was used to induce aggregation. The various compounds tested were dissolved in dimethylsulfoxide (DMSO) so that 5 mcl added to the platelet rich plasma would yield the desired test concentration. Vehicle control trials were done and compared with aggregation induced in platelet rich plasma containing various concentrations of the test compounds. Dose response curves were obtained and Inhibitor Concentration (IC50) values calculated.
The target compounds were evaluated as inhibitors of ADP-induced aggregation of human blood platelets in platelet-rich-plasma (PRP) in vitro.

The mark [2] stands for this setting: 0.05 h, ADP 0.5 mcg/mL, human PRP, standard protocol: about 3 minutes incubation prior to agonist, read-out: IC50 vs ADP in human PRP.

For the compound `CCOC(=O)NCCCOc1ccc2nc3[nH]c(=O)[nH]c3cc2c1` [Cmpd 7a], in the data set “Aqueous solubility”, the solubility was less than 10000 µg/mL. Also, the IC50 in data set [1] (setting [2]) came out at 0.035 µg/mL (≈ 0.106 µM).

`CN(C(=O)NCCCOc1ccc2nc3[nH]c(=O)[nH]c3cc2c1)C1CCCCC1` [Cmpd 7b, N-Cyclohexyl-N'-[3-[(2,3-dihydro-2-oxo-1H-imidazo[4,5-b]quinolin-7-yl)oxy]propyl]-N-methylurea] displayed a solubility in “Aqueous solubility” of less than 10000 µg/mL. For the same compound, the IC50 in data set [1] (setting [2]) came out at 0.04 µg/mL (≈ 0.101 µM).

In the case of `Cl.O=C(NCCCOc1ccc2nc3[nH]c(=O)[nH]c3cc2c1)NC1CCCCC1` [Cmpd 7c, N-Cyclohexyl-N'-[3-[(2,3-dihydro-2-oxo-1H-imidazo[4,5-b]quinolin-7-yl)oxy]propyl]urea hydrochloride], in the data set “Aqueous solubility”, the solubility is less than 10000 µg/mL. In addition, the IC50 in data set [1] (setting [2]) came out at 0.3 µg/mL.

On to `O=C(NCCCOc1ccc2nc3[nH]c(=O)[nH]c3cc2c1)N1CCOCC1` [Cmpd 7d], for which the solubility in “Aqueous solubility” was less than 10000 µg/mL. For the same compound, the IC50 in data set [1] (setting [2]) came to 1.2 µg/mL (≈ 3.23 µM).

Consider `Cl.O=C(NCCCOc1ccc2nc3[nH]c(=O)[nH]c3cc2c1)N1CCC(Cc2ccccc2)CC1` [Cmpd 7e, N-[3-(2,3-dihydro-2-oxo-1H-imidazo[4,5-b]quinolin-7yloxy)propyl]-4-(phenylmethyl)-1-piperidinecarboxamide hydrochloride], for which, in the data set “Aqueous solubility”, the solubility was less than 200 µg/mL. Also, the IC50 in data set [1] (setting [2]) worked out at 0.08 µg/mL.

For the compound `Cl.Cl.O=C(NCCCOc1ccc2nc3[nH]c(=O)[nH]c3cc2c1)N1CCN(CC2CCCCC2)CC1` [Cmpd 7f, 4-(Cyclohexylmethyl)-N-[3-(2,3-dihydro-2-oxo-1H-imidazo[4,5-b]quinolin-7yloxy)propyl]-1-piperazinecarboxamide dihydrochloride], the solubility in the data set “Aqueous solubility” is more than 20000 µg/mL. In data set [1] (setting [2]), the IC50 came to 0.04 µg/mL.

Compound `O=C(NCCCOc1ccc2nc3[nH]c(=O)[nH]c3cc2c1)N1CCN(CC2CCCCCC2)CC1` [Cmpd 7g, 4-(Cycloheptylmethyl)-N-[3-(2.3-dihydro-2-oxo-1H-imidazo[4,5-b]quinolin-7yloxy)propyl]-1piperazinecarboxamide dihydrochloride] displayed a solubility in “Aqueous solubility” of 2000 µg/mL. In addition, in data set [1] (setting [2]), the IC50 was found to be 0.03 µg/mL.

As to `Cl.Cl.O=C(NCCCOc1ccc2nc3[nH]c(=O)[nH]c3cc2c1)N1CCN(CC2CCCC2)CC1` [Cmpd 7h, 4-(Cyclopentylmethyl)-N-[3-(2,3-dihydro-2-oxo-1H-imidazo[4,5-b]quinolin-7yloxy)propyl]-1-piperazinecarboxamide dihydrochloride], the solubility in the data set “Aqueous solubility” turned out to be 700 µg/mL. In addition, the IC50 in data set [1] (setting [2]) is 0.05 µg/mL.

`Cl.Cl.O=C(NCCCOc1ccc2nc3[nH]c(=O)[nH]c3cc2c1)N1CCN(CCC2CCCCC2)CC1` [Cmpd 7i, 4-(Cyclohexylethyl)-N-[3-(2,3-dihydro-2-oxo-1H-imidazo [4,5-b]quinolin-7yloxy)propyl]-1-piperazinecarboxamide dihydrochloride]: the solubility in the data set “Aqueous solubility” turned out to be 500 µg/mL. In addition, the IC50 in data set [1] (setting [2]) amounted to 0.04 µg/mL.

`O=C(NCCCOc1ccc2nc3[nH]c(=O)[nH]c3cc2c1)N1CCN(CC2CCCCO2)CC1` (stereo not drawn) [Cmpd 7j, N-[3-(2,3-dihydro-2-oxo-1H-imidazo[4,5-b]quinolin-7yloxy)propyl-4-(tetrahydro-2H-pyran-2-yl)methyl]-1-piperazinecarboxamide dihydrochloride ethanol solvate] had a solubility in the data set “Aqueous solubility” of more than 20000 µg/mL. For the same compound, the IC50 in data set [1] (setting [2]) worked out at 0.09 µg/mL.

For the compound `CC(C)CN1CCN(C(=O)NCCCOc2ccc3nc4[nH]c(=O)[nH]c4cc3c2)CC1.Cl.Cl` [Cmpd 7k, N-[3-(2,3-dihydro-2-oxo-1H-imidazo[4,5-b]quinolin-7yloxy)propyl]-4-(2-methylpropyl]-1-piperazinecarboxamide dihydrochloride], in “Aqueous solubility”, the solubility is more than 20000 µg/mL. Besides, the IC50 in data set [1] (setting [2]) amounted to 0.09 µg/mL.

On to `CCC(CC)CN1CCN(C(=O)NCCCOc2ccc3nc4[nH]c(=O)[nH]c4cc3c2)CC1.Cl.Cl` [Cmpd 7l, N-[3-(2,3-dihydro-2-oxo-1H-imidazo[4,5-b]quinolin-7yloxy)propyl]-4-(2-ethylbutyl)-1-piperazinecarboxamide dihydrochloride], for which, in “Aqueous solubility”, the solubility was more than 20000 µg/mL. The IC50 in data set [1] (setting [2]) stood at 0.022 µg/mL.

As for `CCCC(CCC)CN1CCN(C(=O)NCCCOc2ccc3nc4[nH]c(=O)[nH]c4cc3c2)CC1.Cl.Cl` [Cmpd 7m, N-[3-(2,3-dihydro-2-oxo-1H-imidazo[4,5-b]quinolin-7yloxy)propyl]-4-(2-propylpentyl]-1-piperazinecarboxamide dihydrochloride], the solubility in the data set “Aqueous solubility” came to 500 µg/mL. Besides, the IC50 in data set [1] (setting [2]) was found to be 0.07 µg/mL.

In “Aqueous solubility”, `O=C(NCCCOc1ccc2nc3[nH]c(=O)[nH]c3cc2c1)N1CCNCC1` [Cmpd 7n, N-[3-(2.3-dihydro-2-oxo-1H-imidazo4.5-b]quinolin-7yloxy)propyl]-1-piperazinecarboxamide dihydrochloride ethanol solvate] yielded a solubility of less than 500 µg/mL. Moreover, the IC50 in data set [1] (setting [2]) stood at 3.8 µg/mL.

`O=C(NCCCOc1ccc2nc3[nH]c(=O)[nH]c3cc2c1)N1CCN(Cc2ccccc2)CC1` [Cmpd 7o, N-[3-(2,3-dihydro-2-oxo-1H-imidazo[4,5-b]quinolin-7yloxy)propyl]-4-(phenylmethyl)-1-piperazinecarboxamide dihydrochloride ethanol solvate] returned a solubility in the data set “Aqueous solubility” of more than 20000 µg/mL. Also, the IC50 in data set [1] (setting [2]) stood at 0.18 µg/mL.

As to `O=C(NCCCOc1ccc2nc3[nH]c(=O)[nH]c3cc2c1)N1CCN(Cc2ccc(Cl)cc2)CC1` [Cmpd 7p, N-[3-(2,3-dihydro-2-oxo-1H-imidazo[4,5-b]quinolin-7yloxy)propyl]-4-(4-chlorophenyl)methyl)-1-piperazine carboxamide dihydrochloride], the solubility in “Aqueous solubility” was 200 µg/mL. The IC50 in data set [1] (setting [2]) was found to be 0.17 µg/mL.

Regarding `O=C(NCCCOc1ccc2nc3[nH]c(=O)[nH]c3cc2c1)N1CCN(Cc2ccc(F)cc2)CC1` [Cmpd 7q, N-[3-(2,3-dihydro-2-oxo-1H-imidazo[4,5-b]quinolin-7yloxy)propyl]-4-[(4-fluorophenyl)methyl)-1-piperazine carboxamide dihydrochloride ethanol solvate], the solubility in the data set “Aqueous solubility” is more than 20000 µg/mL. In addition, the IC50 in data set [1] (setting [2]) was 0.205 µg/mL.

On to `O=C(NCCCOc1ccc2nc3[nH]c(=O)[nH]c3cc2c1)N1CCN(CCc2ccccc2)CC1` [Cmpd 7r, N-[3-(2,3-dihydro-2-oxo-1H-imidazo[4,5-b]quinolin-7yloxy)propyl]-4-[(2-phenylethyl)-1-piperazinecarboxamidedihydrochloride], for which the solubility in “Aqueous solubility” turned out to be 250 µg/mL. The IC50 in data set [1] (setting [2]) was 0.17 µg/mL.

Take `O=C(NCCCOc1ccc2nc3[nH]c(=O)[nH]c3cc2c1)N1CCN(Cc2cccs2)CC1` [Cmpd 7s, N-[3-(2,3-dihydro-2-oxo-1H-imidazo[4,5-b]quinolin-7yloxy)propyl]-4-[(2-thienyl)methyl)-1-piperazinecarboxamide dihydrochloride ethanol solvate]: in the data set “Aqueous solubility”, the solubility is more than 10000 µg/mL. In data set [1] (setting [2]), the IC50 stood at 0.09 µg/mL.

On to `O=C(NCCCOc1ccc2nc3[nH]c(=O)[nH]c3cc2c1)N1CCN(Cc2ccsc2)CC1` [Cmpd 7t, N-3-(2,3-dihydro-2-oxo-1H-imidazo[4,5-b]quinolin-7yloxy)propyl]-4-[(3-thienyl)methyl)-1-piperazinecarboxamide dihydrochloride], for which, in “Aqueous solubility”, the solubility was found to be 3000 µg/mL. Moreover, the IC50 in data set [1] (setting [2]) was determined as 0.15 µg/mL.

As to `Cl.Cl.O=C(NCCCOc1ccc2nc3[nH]c(=O)[nH]c3cc2c1)N1CCC(N2CCCCC2)CC1` [Cmpd 7u, N-[3-(2,3-dihydro-2-oxo-1H-imidazo[4,5-b]quinolin-7yloxy)propyl]-4-(1-piperidinyl)-1-piperidinecarboxamide dihydrochloride], the solubility in the data set “Aqueous solubility” was more than 20000 µg/mL. In addition, the IC50 in data set [1] (setting [2]) came to 5.2 µg/mL.

As for `Cl.Cl.O=C(NCCCOc1ccc2nc3[nH]c(=O)[nH]c3cc2c1)N1CCN(c2ncccn2)CC1` [Cmpd 7v, N-[3-(2,3-dihydro-2-oxo-1H-imidazo[4,5-b]quinolin-7yloxy)propyl]-4-(2-pyrimidinyl)-1-piperazinecarboxamide dihydrochloride], in the data set “Aqueous solubility”, the solubility came to 100 µg/mL. Further, in data set [1] (setting [2]), the IC50 came out at 0.17 µg/mL.

For `O=C(NCCCOc1ccc2nc3[nH]c(=O)[nH]c3cc2c1)N1CCN(c2ccccn2)CC1` [Cmpd 7w, N-[3-(2,3-dihydro-2-oxo-1H-imidazo[4,5-b]quinolin-7yloxy)propyl]-4-(2-pyridyl)-1-piperazinecarboxamide dihydrochloride ethanol solvate], the solubility in “Aqueous solubility” was found to be 500 µg/mL. Also, the IC50 in data set [1] (setting [2]) is 0.38 µg/mL.

As to `O=C(CCCOc1ccc2nc3[nH]c(=O)[nH]c3cc2c1)N1CCN(CC2CCCCC2)CC1` [formula (3) compound, reference compound], the IC50 in data set [1] (Homo sapiens, incubation with PRP for about 15 minutes prior to adding ADP, read-out: observed IC50, ADP-induced aggregation) turned out to be 0.041 µg/mL; in data set [1] (Homo sapiens, read-out: concentration providing 50% inhibition of ADP-induced aggregation, incubation with PRP for about 3 minutes prior to addition of the agonist) it was 0.182 µg/mL.
